In one test the test system is MRSA. As to the kind of experiment: MIC testing by broth dilution, MRSA. Type of test: cell-based, Staphylococcus aureus. In outline:
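Values are broth-dilution MICs, defined as the well showing no growth on visual reading after 24 h; the tested range was 32 to 0.06 μg/ml, in organism-specific media (LB, Trypticase Soy, Brain Heart Infusion). The C. difficile entries come instead from anaerobic Kirby-Bauer disk zones, normalised to NTZ.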

Test [1] relates to PFOR (pyruvate ferredoxin oxidoreductase). Description: Direct PFOR enzyme assay. The class given is biochemical. The method, then:
Representative compounds of the invention were tested in a series of assays against a series of organisms as described above. […] The organisms tested include, C. difficile, H. pylori, C. jejuni, MRSA, S. epidermidis, and E. coli. S. epidermidis and E. coli were tested in the plank and biofilm assay. A disk diffusion assay was also used for C. difficile. Direct PFOR enzyme assays were also performed. All analogues and derivatives were not tested on every organism in every type of assay (the “-” in each table means that it was not tested).

A further test concerns C. jejuni. As to the kind of experiment: MIC testing by broth dilution, C. jejuni. Type of test: cell-based, Campylobacter jejuni. The method, boiled down:
(§1)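 Compounds were diluted serially from 32 μg/ml to 0.06 in medium holding a standard inoculum, then visually scored at 24 h, and the lowest well without growth was recorded. Media were LB for E. coli, Trypticase Soy for S. epidermidis and Brain Heart Infusion for C. jejuni. C. difficile zones were measured anaerobically relative to NTZ.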
On the technique in general: In broth dilution the organism is exposed to a series of concentrations in liquid medium.

The next test concerns H. pylori. Description: MIC testing by broth dilution, H. pylori. The class given is cell-based, Helicobacter pylori. The method, boiled down:
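Broth dilution MIC determination against H. pylori: a standard inoculum in 100 microliters of Brain Heart Infusion medium was placed in 96 well microplates. Test compounds began at 32 μg/ml in 200 microliters in well one and were serially diluted over a 32 to 0.06 range. After 24 h, plates were scored by eye and the first well without growth was recorded as the MIC.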

The test system of the next test is S. epidermidis. As to the kind of experiment: MIC testing by broth dilution, S. epidermidis plank. Type of test: cell-based, Staphylococcus epidermidis. The method, boiled down:
as §1

A further test deals with C. difficile. Description: Disk diffusion (Kirby Bower), C. difficile. Type of test: cell-based, Clostridium difficile. As to conditions: Nitazoxanide = 100; Thiophene analogues table. In outline: as §1
Background: Agar diffusion results depend on both activity and mobility in agar.

The subject of the next test is S. epidermidis biofilm. As to the kind of experiment: S. epidermidis biofilm assay (activity tables). Type of test: cell-based, Staphylococcus epidermidis. As to conditions: Thiophene analogues table. In outline:
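Overnight TSB cultures diluted to OD600 0.01 and grown static with compound (triplicate) at 37° C for 16 h; turbidity recorded for growth. Biofilm: washed wells ethanol-fixed, stained with 0.5% crystal violet, A570 read before and after 95% ethanol extraction; mean ± SD.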

The subject of the next test is E. coli. Description: MIC testing by broth dilution, E. coli plank. Type of test: cell-based, Escherichia coli. As to conditions: Escherichia coli. The method, boiled down: as §1
The next test concerns E. coli biofilm. As to the kind of experiment: E. coli biofilm assay (activity tables). Type of test: cell-based, Escherichia coli. As to conditions: Escherichia coli; biofilm; Thiophene analogues table; read-out: MIC E. coli Biofilm. The method, boiled down:
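After 24 h static culture at 37 °C in wells containing NTZ, strain 042 (1:100 inoculum) biofilm was quantified by 0.5% crystal violet absorbance at 570 nm. Planktonic growth was taken from turbidity or LB plate counts as cfu/ml; all runs triplicate, reported as mean and SD.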

[2] abbreviates: 2-amino-3,5-dinitrothiophene analogues table, read-out: MIC MRSA.
Where [3] appears, read: * biphasic initial inhibition followed by uninhibited rate, ** caused some precipitant in extract.
The mark [4] stands for this setting: 2-amino-3,5-dinitrothiophene analogues table, read-out: MIC C. jejuni.
[5] abbreviates: 2-amino-3,5-dinitrothiophene analogues table, read-out: MIC H. pylori.
The mark [6] stands for this setting: planktonic, 2-amino-3,5-dinitrothiophene analogues table, read-out: MIC S. epidermidis Plank.
Setting [7] is: Staphylococcus aureus, MRSA, read-out: MIC MRSA.
[8] abbreviates: Campylobacter jejuni, read-out: MIC C. jejuni.
The mark [9] stands for this setting: Helicobacter pylori, read-out: MIC H. pylori.
The mark [10] stands for this setting: Staphylococcus epidermidis, read-out: MIC S. epidermidis Plank.
Setting [11] is: Staphylococcus aureus, MRSA, 24 h, read-out: MIC (μM) MRSA.
Setting [12] is: Campylobacter jejuni, 24 h, read-out: MIC (μM) C. jejuni.
Setting [13] is: Helicobacter pylori, 24 h, read-out: MIC (μM) H. pylori.
The mark [14] stands for this setting: Staphylococcus epidermidis, 24 h, read-out: MIC (μM) S. epidermidis Plank.

Values after ≈ are worked out from the molar mass of the structure shown. Counter-ions that a name gives are not always drawn. Like-named read-outs stand apart in the source and are kept apart here.

Consider `O=C(Nc1sc([N+](=O)[O-])cc1[N+](=O)[O-])c1ccc(Br)s1` [VPC16b2025], for which the MIC in the test with MRSA (setting [2]) is recorded as 63.5 µM (≈ 24 µg/mL); in the test on C. jejuni (setting [4]), 2.6 µM (≈ 0.983 µg/mL); in the test on H. pylori (setting [5]) it was 2.6 µM (≈ 0.983 µg/mL); in the test with S. epidermidis (setting [6]), 15.9 µM (≈ 6.01 µg/mL). The “PFOR inhibition relative to nitazoxanide (=100)” value in test [1] (setting [3]) is 98** %.
On to `O=C(Nc1sc([N+](=O)[O-])cc1[N+](=O)[O-])c1cc(C(F)(F)F)ccc1Cl` [VPC16b2026, 2-Chloro-N-(3,5-dinitrothiophen-2-yl)-5-(trifluoromethyl)benzamide], for which the MIC in the test with MRSA (setting [7]) was found to be 30.3 µM (≈ 12 µg/mL); with C. jejuni (setting [8]), 2.5 µM (≈ 0.989 µg/mL); in the test with H. pylori (setting [9]), 0.8 µM (≈ 0.317 µg/mL); in the test on S. epidermidis (setting [10]), 15.2 µM (≈ 6.01 µg/mL). In addition, the “PFOR inhibition relative to nitazoxanide (=100)” value in [1] (setting [3]) was 100%.
For the compound `O=C(Nc1sc([N+](=O)[O-])cc1[N+](=O)[O-])c1cccc(C(F)(F)F)c1Cl` [VPC16b2028], the MIC came out at 30.3 µM (≈ 12 µg/mL) with MRSA (setting [2]), 1.9 µM (≈ 0.752 µg/mL) in the test on C. jejuni (setting [4]), 0.8 µM (≈ 0.317 µg/mL) in the test with H. pylori (setting [5]) and 30.3 µM (≈ 12 µg/mL) with S. epidermidis (setting [6]). Moreover, in [1] (setting [3]), the “PFOR inhibition relative to nitazoxanide (=100)” value turned out to be 113%.
As to `NCCOc1ccccc1C(=O)Nc1sc([N+](=O)[O-])cc1[N+](=O)[O-]` [VPC16b2031, 2-(2-Aminoethoxy)-N-(3,5-dinitrothiophen-2-yl)benzamide], the MIC in the test on MRSA (setting [7]) stood at 82.3 µM (≈ 29 µg/mL); in the test with C. jejuni (setting [8]), 1.3 µM (≈ 0.458 µg/mL); in the test with H. pylori (setting [9]), 1.9 µM (≈ 0.669 µg/mL); in the test with S. epidermidis (setting [10]), 25.7 µM (≈ 9.05 µg/mL). Also, the “PFOR inhibition relative to nitazoxanide (=100)” value in [1] (setting [3]) was 162%.
Regarding `O=C(Nc1ncc([N+](=O)[O-])s1)c1ccc(Br)s1` [VPC161282, 5-Bromo-N-(5-nitrothiazol-2-yl)thiophene-2-carboxamide], the MIC in the test on MRSA (Staphylococcus aureus, MRSA, Thiophene analogues table, read-out: MIC MRSA) was determined as 4.5 µM (≈ 1.5 µg/mL); in the test on C. jejuni (Campylobacter jejuni, Thiophene analogues table, read-out: MIC C. jejuni) it was 9.9 µM (≈ 3.31 µg/mL); in the test with E. coli (planktonic, Thiophene analogues table, read-out: MIC E. coli Plank) it was 95.8 µM (≈ 32 µg/mL); in the test with E. coli biofilm, 0.1 µM (≈ 0.0334 µg/mL); in the test with H. pylori (Helicobacter pylori, Thiophene analogues table, read-out: MIC H. pylori), 3 µM (≈ 1 µg/mL); in the test with S. epidermidis (Staphylococcus epidermidis, planktonic, Thiophene analogues table, read-out: MIC S. epidermidis Plank), 23.9 µM (≈ 7.99 µg/mL). In addition, the “Disk Diff (%) C. difficile” value in the test on C. difficile stood at 90%. Moreover, the “MIC S. epidermidis Biofilm” value in the test on S. epidermidis biofilm came out at 47.9 µM (≈ 16 µg/mL).
On to `O=C(Nc1nc(Cl)c([N+](=O)[O-])s1)c1cccs1` [VPC162089, N-(4-Chloro-5-nitrothiazol-2-yl)thiophene-2-carboxamide], for which the MIC in the test on MRSA (Staphylococcus aureus, MRSA, broth dilution, Trypticase Soy, 24 h, read-out: MIC (μM) MRSA) was 110 µM (≈ 32 µg/mL); with C. jejuni (Campylobacter jejuni, broth dilution, Brain Heart Infusion, 24 h, read-out: MIC (μM) C. jejuni), 13.8 µM (≈ 4 µg/mL); in the test on E. coli (broth dilution, LB medium, 24 h, read-out: MIC (μM) E. coli Plank), 110 µM (≈ 32 µg/mL); with H. pylori (Helicobacter pylori, broth dilution, Brain Heart Infusion, 24 h, read-out: MIC (μM) H. pylori) it was 6.9 µM (≈ 2 µg/mL); in the test on S. epidermidis (Staphylococcus epidermidis, broth dilution, Trypticase Soy, 24 h, read-out: MIC (μM) S. epidermidis Plank), 82.8 µM (≈ 24 µg/mL). Besides, in test [1], the “PFOR inhibition relative to nitazoxanide (=100)” value is listed as 93%.
As to `NCCOc1ccsc1C(=O)Nc1ncc([N+](=O)[O-])s1` [VPC162125, 3-(2-Aminoethoxy)-N-(5-nitrothiazol-2-yl)thiophene-2-carboxamide hydrochloride], the MIC is 91.2 µM in the test on MRSA (setting [11]); 11.4 µM with C. jejuni (setting [12]); 91.2 µM with E. coli (24 h, read-out: MIC (μM) E. coli Plank); 0.7 µM with H. pylori (setting [13]); 91.2 µM in the test on S. epidermidis (setting [14]). In test [1], the “PFOR inhibition relative to nitazoxanide (=100)” value is on record as 137%.
Turning to `NCCCc1ccccc1C(=O)Nc1ncc([N+](=O)[O-])s1` [VPC162134, 2-(3-Aminopropyl)-N-(5-nitrothiazol-2-yl)benzamide hydrochloride], the MIC stood at 93.3 µM in the test on MRSA (setting [11]), 17.5 µM in the test on C. jejuni (setting [12]), 2.9 µM in the test on H. pylori (setting [13]) and 93.3 µM with S. epidermidis (setting [14]). The “PFOR inhibition relative to nitazoxanide (=100)” value in [1] is listed as 144%.

(Values after patent US8835644B2, “Broad spectrum benzothiophene-nitrothiazolide and other antimicrobials” (University of Virginia Patent Foundation, priority 2009, dated 2014).)
